Measurements reported in the supplement of paper PMC11665569.
± gives the standard deviation of the averaged measurements.

Columns and labels:
Conditions in all cases: treatment time: 5 days
[1] = test system: H1373
Method: (§1)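 CCK-8 viability of KRAS G12C-mutant cancer cell lines transfected with control, YAP/TAZ or TEAD1-4 siRNAs and treated with KRAS G12C inhibitors for 5 days; IC50 fitted in Prism after normalising absorbance at 450 nm to vehicle control.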

[2] = test system: H1792
Method: as §1

[3] = test system: H2030
Method: as §1

[4] = test system: H358
Method: as §1

[5] = test system: KYSE410
Method: as §1

[6] = test system: MIAPACA2
Method: as §1

[7] = test system: SW1573
Method: as §1

[8] = test system: SW1573; assay: relative viability (fraction of vehicle control); higher = more viable / less inhibited
Method: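 CCK-8 viability of SW1573 cells transfected with control, YAP/TAZ or TEAD1-4 siRNAs and treated with KRAS G12C inhibitors for 5 days. Values are normalised to vehicle control.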

C=C(F)C(=O)N1CCN(c2nc(OC[C@@H]3CCCN3C)nc3c2CCN(c2cccc4cccc(Cl)c24)C3)C[C@@H]1CC#N [MRTX849]
Conditions	IC50 (cell viability, 5 days) [nM]	relative viability
[1], siRNA knockdown (Con = control): Con	82.1	–
[1], siRNA knockdown (Con = control): YAP_WWTR1_si1	19.3	–
[1], siRNA knockdown (Con = control): YAP_WWTR1_si2	11.4	–
[2], siRNA knockdown (Con = control): Con	304	–
[2], siRNA knockdown (Con = control): YAP_WWTR1_si1	55	–
[2], siRNA knockdown (Con = control): YAP_WWTR1_si2	45.6	–
[3], siRNA knockdown (Con = control): Con	1500	–
[3], siRNA knockdown (Con = control): TEAD1234_si2	28	–
[4], siRNA knockdown (Con = control): Con	9.45	–
[4], siRNA knockdown (Con = control): TEAD1234_si1	5.61	–
[4], siRNA knockdown (Con = control): TEAD1234_si2	3.74	–
[4], siRNA knockdown (Con = control): YAP_WWTR1_si1	5.52	–
[4], siRNA knockdown (Con = control): YAP_WWTR1_si2	5.33	–
[5], siRNA knockdown (Con = control): Con	1260	–
[5], siRNA knockdown (Con = control): TEAD1234_si1	415	–
[5], siRNA knockdown (Con = control): TEAD1234_si2	83.3	–
[5], siRNA knockdown (Con = control): YAP_WWTR1_si1	80	–
[5], siRNA knockdown (Con = control): YAP_WWTR1_si2	27.2	–
[6], siRNA knockdown (Con = control): Con	115	–
[6], siRNA knockdown (Con = control): TEAD1234_si1	52.6	–
[6], siRNA knockdown (Con = control): TEAD1234_si2	49.4	–
[6], siRNA knockdown (Con = control): YAP_WWTR1_si1	34.4	–
[6], siRNA knockdown (Con = control): YAP_WWTR1_si2	60.6	–
[7], siRNA knockdown (Con = control): Con	926	–
[7], siRNA knockdown (Con = control): TEAD1234_si1	7.3	–
[7], siRNA knockdown (Con = control): TEAD1234_si2	4.3	–
[8], log10 concentration (uM): 0, siRNA knockdown: TEAD1-4 siRNA 1	–	0.154 ± 0.02
[8], log10 concentration (uM): 0, siRNA knockdown: TEAD1-4 siRNA 2	–	0.307 ± 0.062
[8], log10 concentration (uM): 0, siRNA knockdown: YAP/TAZ siRNA 1	–	0.0935 ± 0.015
[8], log10 concentration (uM): 0, siRNA knockdown: YAP/TAZ siRNA 2	–	0.0411 ± 0.0087
[8], log10 concentration (uM): 0, siRNA knockdown: negative control siRNA	–	0.426 ± 0.091
[8], log10 concentration (uM): 0.69897, siRNA knockdown: TEAD1-4 siRNA 1	–	0.0234 ± 0.0063
[8], log10 concentration (uM): 0.69897, siRNA knockdown: TEAD1-4 siRNA 2	–	0.127 ± 0.03
[8], log10 concentration (uM): 0.69897, siRNA knockdown: YAP/TAZ siRNA 1	–	0.00636 ± 0.0042
[8], log10 concentration (uM): 0.69897, siRNA knockdown: YAP/TAZ siRNA 2	–	0.00791 ± 0.0041
[8], log10 concentration (uM): 0.69897, siRNA knockdown: negative control siRNA	–	0.00854 ± 0.0029
[8], log10 concentration (uM): -0.30103, siRNA knockdown: TEAD1-4 siRNA 1	–	0.173 ± 0.015
[8], log10 concentration (uM): -0.30103, siRNA knockdown: TEAD1-4 siRNA 2	–	0.246 ± 0.02
[8], log10 concentration (uM): -0.30103, siRNA knockdown: YAP/TAZ siRNA 1	–	0.141 ± 0.007
[8], log10 concentration (uM): -0.30103, siRNA knockdown: YAP/TAZ siRNA 2	–	0.0897 ± 0.0099
[8], log10 concentration (uM): -0.30103, siRNA knockdown: negative control siRNA	–	0.66 ± 0.035
[8], log10 concentration (uM): -1, siRNA knockdown: TEAD1-4 siRNA 1	–	0.244 ± 0.026
[8], log10 concentration (uM): -1, siRNA knockdown: TEAD1-4 siRNA 2	–	0.263 ± 0.053
[8], log10 concentration (uM): -1, siRNA knockdown: YAP/TAZ siRNA 1	–	0.154 ± 0.034
[8], log10 concentration (uM): -1, siRNA knockdown: YAP/TAZ siRNA 2	–	0.0905 ± 0.0041
[8], log10 concentration (uM): -1, siRNA knockdown: negative control siRNA	–	0.726 ± 0.012
[8], log10 concentration (uM): -1.30103, siRNA knockdown: TEAD1-4 siRNA 1	–	0.262 ± 0.049
[8], log10 concentration (uM): -1.30103, siRNA knockdown: TEAD1-4 siRNA 2	–	0.289 ± 0.026
[8], log10 concentration (uM): -1.30103, siRNA knockdown: YAP/TAZ siRNA 1	–	0.161 ± 0.0043
[8], log10 concentration (uM): -1.30103, siRNA knockdown: YAP/TAZ siRNA 2	–	0.108 ± 0.014
[8], log10 concentration (uM): -1.30103, siRNA knockdown: negative control siRNA	–	0.751 ± 0.028
[8], log10 concentration (uM): -2, siRNA knockdown: TEAD1-4 siRNA 1	–	0.463 ± 0.022
[8], log10 concentration (uM): -2, siRNA knockdown: TEAD1-4 siRNA 2	–	0.452 ± 0.075
[8], log10 concentration (uM): -2, siRNA knockdown: YAP/TAZ siRNA 1	–	0.23 ± 0.018
[8], log10 concentration (uM): -2, siRNA knockdown: YAP/TAZ siRNA 2	–	0.181 ± 0.0047
[8], log10 concentration (uM): -2, siRNA knockdown: negative control siRNA	–	0.847 ± 0.029
[8], log10 concentration (uM): -2.30103, siRNA knockdown: TEAD1-4 siRNA 1	–	0.552 ± 0.046
[8], log10 concentration (uM): -2.30103, siRNA knockdown: TEAD1-4 siRNA 2	–	0.5 ± 0.073
